Measured values reported in PubChem BioAssay (NCI).
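These data come from cells grown in 96-well plates and exposed to compound for 48 hours at five concentrations. TGI is the concentration that stops growth completely.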

How the values were obtained:
Test in all cases: NCI tumour cell line growth inhibition, 48 h
A498 renal = system: A498 renal
A549 NSCLC = system: A549 NSCLC
CAKI-1 renal = system: CAKI-1 renal
CCRF-CEM leukemia = system: CCRF-CEM leukemia
COLO 205 colon = system: COLO 205 colon
DLD-1 colon = system: DLD-1 colon
DMS 273 small cell lung = system: DMS 273 small cell lung
EKVX NSCLC = system: EKVX NSCLC
HCT-116 colon = system: HCT-116 colon
HCT-15 colon = system: HCT-15 colon
HL-60(TB) leukemia = system: HL-60(TB) leukemia
HOP-18 NSCLC = system: HOP-18 NSCLC
HOP-62 NSCLC = system: HOP-62 NSCLC
HOP-92 NSCLC = system: HOP-92 NSCLC
HT29 colon = system: HT29 colon
IGROV1 ovarian = system: IGROV1 ovarian
K-562 leukemia = system: K-562 leukemia
KM12 colon = system: KM12 colon
KM20L2 colon = system: KM20L2 colon
LOX IMVI melanoma = system: LOX IMVI melanoma
M19-MEL melanoma = system: M19-MEL melanoma
MCF7 breast = system: MCF7 breast
MOLT-4 leukemia = system: MOLT-4 leukemia
NCI-H226 lung = system: NCI-H226 lung
NCI-H23 lung = system: NCI-H23 lung
NCI-H460 lung = system: NCI-H460 lung
NCI-H522 lung = system: NCI-H522 lung
NCI/ADR-RES ovarian = system: NCI/ADR-RES ovarian
OVCAR-3 ovarian = system: OVCAR-3 ovarian
OVCAR-4 ovarian = system: OVCAR-4 ovarian
OVCAR-5 ovarian = system: OVCAR-5 ovarian
OVCAR-8 ovarian = system: OVCAR-8 ovarian
P388 leukemia = system: P388 leukemia
P388/ADR leukemia = system: P388/ADR leukemia
RPMI-8226 leukemia = system: RPMI-8226 leukemia
RXF 393 renal = system: RXF 393 renal
SF-268 CNS = system: SF-268 CNS
SF-295 CNS = system: SF-295 CNS
SF-539 CNS = system: SF-539 CNS
SK-MEL-2 melanoma = system: SK-MEL-2 melanoma
SK-MEL-28 melanoma = system: SK-MEL-28 melanoma
SK-MEL-5 melanoma = system: SK-MEL-5 melanoma
SK-OV-3 ovarian = system: SK-OV-3 ovarian
SN12C renal = system: SN12C renal
SN12K1 renal = system: SN12K1 renal
SNB-19 CNS = system: SNB-19 CNS
SNB-75 CNS = system: SNB-75 CNS
SNB-78 CNS = system: SNB-78 CNS
SW-620 colon = system: SW-620 colon
U251 CNS = system: U251 CNS
UACC-257 melanoma = system: UACC-257 melanoma
UACC-62 melanoma = system: UACC-62 melanoma
UO-31 renal = system: UO-31 renal
XF 498 CNS = system: XF 498 CNS

## COc1cc2c(cc1OC)C(Cc1c3ccccc3cc3ccccc13)N(C)CC2 (centres undefined)
A498 renal
  TGI: 43.6 µM
A549 NSCLC
  TGI: > 100 µM
CAKI-1 renal
  TGI: > 100 µM
CCRF-CEM leukemia
  TGI: 93 µM
COLO 205 colon
  TGI: 29.7 µM
DLD-1 colon
  TGI: > 100 µM
DMS 273 small cell lung
  TGI: 74.1 µM
EKVX NSCLC
  TGI: 96.8 µM
HCT-116 colon
  TGI: 40.3 µM
HCT-15 colon
  TGI: > 87.6 µM
HL-60(TB) leukemia
  TGI: 31.3 µM
HOP-18 NSCLC
  TGI: 50.4 µM
HOP-62 NSCLC
  TGI: 48.7 µM
HOP-92 NSCLC
  TGI: 35 µM
HT29 colon
  TGI: 31 µM
IGROV1 ovarian
  TGI: 65.4 µM
K-562 leukemia
  TGI: 39.3 µM
KM12 colon
  TGI: 35.9 µM
KM20L2 colon
  TGI: 40.5 µM
LOX IMVI melanoma
  TGI: 41.2 µM
M19-MEL melanoma
  TGI: 49.8 µM
MCF7 breast
  TGI: 33.7 µM
MOLT-4 leukemia
  TGI: 58.3 µM
NCI-H226 lung
  TGI: 60.2 µM
NCI-H23 lung
  TGI: > 85.3 µM
NCI-H460 lung
  TGI: 61.3 µM
NCI-H522 lung
  TGI: 60 µM
NCI/ADR-RES ovarian
  TGI: > 74.1 µM
OVCAR-3 ovarian
  TGI: > 61.1 µM
OVCAR-4 ovarian
  TGI: > 100 µM
OVCAR-5 ovarian
  TGI: 40.2 µM
OVCAR-8 ovarian
  TGI: > 90.7 µM
P388 leukemia
  TGI: 47.6 µM
P388/ADR leukemia
  TGI: 35 µM
RPMI-8226 leukemia
  TGI: 34 µM
RXF 393 renal
  TGI: 32.5 µM
SF-268 CNS
  TGI: > 100 µM
SF-295 CNS
  TGI: 33.8 µM
SF-539 CNS
  TGI: 47.1 µM
SK-MEL-2 melanoma
  TGI: 32.6 µM
SK-MEL-28 melanoma
  TGI: 46.8 µM
SK-MEL-5 melanoma
  TGI: 35.3 µM
SK-OV-3 ovarian
  TGI: 84.5 µM
SN12C renal
  TGI: > 100 µM
SN12K1 renal
  TGI: 30.3 µM
SNB-19 CNS
  TGI: 52.4 µM
SNB-75 CNS
  TGI: 37.2 µM
SNB-78 CNS
  TGI: > 73.1 µM
SW-620 colon
  TGI: > 71.5 µM
U251 CNS
  TGI: 35.6 µM
UACC-257 melanoma
  TGI: 35.5 µM
UACC-62 melanoma
  TGI: 40.8 µM
UO-31 renal
  TGI: 57.4 µM
XF 498 CNS
  TGI: 38.8 µM
